Tests used:
[1] = Thermal stability test; format: physicochemical
Protocol: The test compound was placed in a glass bottle and allowed to stand under the following conditions (1) and (2). After a certain period of time had elapsed, the residual rate of the active ingredient [compound (I)] in the test compound was measured by high performance liquid chromatography.
(1): Closed state, 60° C.;
(2): Non-closed state, 40° C., humidity 75%.
The measurement conditions in high performance liquid chromatography are as follows.
Column: L-column ODS [4.6 mm×250 mm, manufactured by Chemicals Evaluation and Research Institute, Japan]
Mobile layer: acetonitrile/22 mM potassium dihydrogenphosphate buffer/methanol=455/350/195 (V/V/V) (adjusted to pH 5.5 by phosphoric acid)
(§1) Column temperature: 40° C.
Detection wavelength: 220 nm
The residual rate (%) was calculated by the following formula.
The residual rate (%)=[1−(sum of peak area percentages of impurities and decomposed products)]×100

[2] = Absorbability test in dog; format: in vivo, dog (male beagle); conditions: for Cmax / AUC(0-t): fasted male beagle, tetragastrin-treated, oral gelatin capsule 100 mg/body, plasma; for AUC(0-t): read-out: AUC0-24 h
Protocol: Tetragastrin (6 μg/kg) was intramuscularly injected to the posterior region of thigh of a fasted male beagle (body weight: about 10 kg, n=4) to make the intragastric pH acidic 30 minutes before, immediately before and 30 minutes after administration of the test compound. The test compound was encapsulated in gelatin capsules at a dose of 100 mg/body and orally administered. About 3 ml of blood was collected from the median antebrachial vein using a heparin-treated glass syringe 0.5, 1, 2, 3, 4, 6, 8 and 24 hours after the administration. The collected blood was centrifuged to obtain plasma which was cryopreserved at −20° C. until measurement of the concentration of the test compound. One hundred μl of thawed plasma was mixed with 100 μl of 50% methanol, 800 μl of purified water, 100 μl of 0.1 N aqueous hydrochloric acid and 100 μl of an internal standard solution [a solution of the d7-compound (I) in 50% methanol, 50 ng/ml]. The eluate obtained by solid phase extraction using OASIS HLB was evaporated to dryness and then dissolved in 400 μl of 75% methanol. The solution was analyzed by LC/MS/MS.
A calibration curve was prepared by the same operation as above using 100 μl of dog control plasma without drug administration and 100 μl of a calibration curve standard solution [a solution of the compound (I) in 50% methanol, 0.1-1000 ng/ml].
The LC/MS/MS analysis conditions are shown below.
System: API4000 LC/MS/MS System (manufactured by
Applied Biosystems/MDS SCIEX)
Ion source: TurboIonSpray
Turbo heater gas: Air, 650° C., 70 psi
Nebulizer gas: Air, 70 psi
Orifice voltage: Compound (I) 106 V • d7-Compound (I) 106 V
Ion spray voltage: 5500 V
Collision energy: Compound (I) 35 V • d7-Compound (I) 35 V
Measurement mode: Positive/MRM
Monitor ion: Compound (I) m/z 583->167 • d7-Compound (I) m/z 590->167
System: Agilent 1100 Series (manufactured by Agilent Technologies)
Column: Inertsil ODS-3 5 μm, 2.1 mm I.D.×150 mm (manufactured by GL Sciences)
Mobile phase: Methanol/water/difluoroacetic acid (700/300/0.75)
as §1
The area under the concentration in plasma-time curve (AUC0-24h) and the maximum concentration in plasma (Cmax) as pharmacokinetic parameters indicative of drug absorbability were calculated from the results obtained according to the aforementioned method using the compound of Example 1 and the compound (I) as test compounds.

[3] = Elution test (JP paddle method, pH 1.2); format: physicochemical; conditions: for Elution rate: pH 1.2, 900 ml, paddle 250 rpm, 100 mg equivalent/capsule
Protocol: A test was carried out using one gelatin capsule filled with the test compound (100 mg equivalent/capsule) and 900 ml of the disintegration test first solution (The Japanese Pharmacopoeia Fourteenth Edition, pH 1.2) as a test solution according to the elution test second method (The Japanese Pharmacopoeia Fourteenth Edition, paddle method) at 250 revolutions per minute. A sinker (The Japanese Pharmacopoeia Fourteenth Edition elution test method) was used for preventing flotation of the gelatin capsule. Five, 10, 15, 20, 30, 45, 60, 75, 90, 105 and 120 minutes after the start of the elution test, about 20 ml of the test solution was filtered through a filter having a pore size of 10 μm (manufactured by VARIAN, Full Flow Filters 10 μm) and directly fed into a flow cell (optical path length: 0.5 cm) in a circulating system. The absorbance was measured by a photodiode array spectrophotometer (HP 8452A). The absorbance of the compound (I) in each test solution at the time of collection of the test solution was compared with the absorbance of the following standard solution to measure the concentration of the compound (I) in the test solution.
The standard solution was prepared as follows. About 28 mg of the compound (I) was precisely weighed and added to a 500 ml volumetric flask. Five ml of ethanol (99.5%, special grade reagent) was added to the flask and the compound (I) was dissolved while providing ultrasonic stimulation as necessary. The disintegration test first solution was added to make the volume exactly 500 ml. The resulting solution was provided as the standard solution.
The elution test system is shown below.
Elution test device: DT-600 (manufactured by JASCO)
Ultraviolet visible spectrophotometer: HP 8452A Diodearray UV-Visible Spectrophotometer (manufactured by Hewlett Packard; now Agilent Technologies)
Cell positioner: HP 89075C Multicell Transport (manufactured by Hewlett Packard)
Delivery pump: HP 89092A Multichannel Pump (manufactured by Hewlett Packard)
Elution test software: Hewlett Packard Dissolution Testing Software, Revision 03.01 (manufactured by Hewlett Packard)
Analysis wavelength: 254 to 258 nm
Control wavelength: 322 to 326 nm
Optical path length of quartz cell: 0.5 cm

Cmax [2] [ng/mL] | AUC(0-t) [2] [ng·h/mL] | Elution rate ([3]; 5 min) [%] | Elution rate ([3]; 10 min) [%] | Elution rate ([3]; 15 min) [%] | Elution rate ([3]; 20 min) [%] | Elution rate ([3]; 30 min) [%] | Elution rate ([3]; 45 min) [%] | Elution rate ([3]; 60 min) [%] | Elution rate ([3]; 75 min) [%] | Elution rate ([3]; 90 min) [%] | Elution rate ([3]; 105 min) [%] | Elution rate ([3]; 120 min) [%] | Structure (SMILES) | other results
248 | 2930 | 1.0 | 1.9 | 3.3 | 5.0 | 9.9 | 23.5 | 35.5 | 40.8 | 45.1 | 49.6 | 52.6 | Br.Br.CC1=C(C(=O)OC(C)C)C(c2cccc([N+](=O)[O-])c2)C(C(=O)OC2CN(C(c3ccccc3)c3ccccc3)C2)=C(N)N1 (single isomer, unassigned) [Example 1, 2-Amino-1,4-dihydro-6-methyl-4-(3-nitrophenyl)-3,5-pyridinedicarboxylic acid 3-(1-diphenylmethylazetidin-3-yl)ester 5-isopropyl ester dihydrobromide] | Residual rate of Compound (I) ([1]; Condition (1): closed state, 60° C., time 0 month): 99.9%; Residual rate of Compound (I) ([1]; Condition (1): closed state, 60° C., time 1 month): 99.7%; Residual rate of Compound (I) ([1]; Condition (1): closed state, 60° C., time 3 months): 99.7%; Residual rate of Compound (I) ([1]; Condition (1): closed state, 60° C., time 6 months): 99.6%; stability (in words) ([1]; Condition (2): non-closed state, 40° C., humidity 75%): excellent stability; Residual rate of Compound (I) ([1]; Condition (2): non-closed state, 40° C., humidity 75%, time 0 month): 99.9%; Residual rate of Compound (I) ([1]; Condition (2): non-closed state, 40° C., humidity 75%, time 1 month): 99.5%; Residual rate of Compound (I) ([1]; Condition (2): non-closed state, 40° C., humidity 75%, time 3 months): 99.1%; Residual rate of Compound (I) ([1]; Condition (2): non-closed state, 40° C., humidity 75%, time 6 months): 98.9%; bioavailability and concentration in blood (AUC0-24h and Cmax), in words ([2]; oral, compared with free compound (I)): superior to those of the free compound (I); elution properties (in words) ([3]; pH 1.2, compared with free compound (I)): superior to those of the free compound (I)
178 | 1810 | 0.5 | 0.7 | 1.0 | 1.3 | 1.8 | 2.5 | 3.1 | 3.6 | 4.1 | 4.5 | 5.0 | CC1=C(C(=O)OC(C)C)C(c2cccc([N+](=O)[O-])c2)C(C(=O)OC2CN(C(c3ccccc3)c3ccccc3)C2)=C(N)N1 (stereo not shown) [Compound (I), 2-Amino-1,4-dihydro-6-methyl-4-(3-nitrophenyl)-3,5-pyridinedicarboxylic acid 3-(1-diphenylmethylazetidin-3-yl) ester 5-isopropyl ester, reference compound] | –

Source: patent publication US20090170827A1, “Acid Addition Salt of Dihydropyridine Derivative” (Daiichi Sankyo Company , Limited, priority 2005, published 2009)
